In brackets after ≈: the same amount, converted by molar mass.
Tests used:
[1] = test system: Bacteroides fragilis L1010 ATCC 23745; experiment: MIC determination, agar dilution (Wilkins-Chalgren agar, anaerobic); assay type: cell-based; settings: ATCC23745, 48 h
[2] = test system: Propionibacterium acnes L1014 ATCC 6919; experiment: as above; assay type: cell-based; settings: Cutibacterium acnes, ATCC6919, 48 h
[3] = test system: Strep. faecalis L149 ATCC 7080; experiment: MIC determination, standard dilution test (Isosensitest broth); assay type: cell-based; settings: Enterococcus faecalis, ATCC7080, 24 h
[4] = test system: Clostridium difficile L1363 ATCC 9689; experiment: MIC determination, agar dilution (Wilkins-Chalgren agar, anaerobic); assay type: cell-based; settings: Clostridioides difficile, ATCC9689, 48 h
Staph. aureus L165 = experiment: MIC determination, standard dilution test (Isosensitest broth); assay type: cell-based; settings: Staphylococcus aureus
[5] = test system: Haemophilus influenzae L 970 type b ATCC 19418; experiment: MIC determination, standard dilution test (Brain Heart broth + 1% Supplement C); assay type: cell-based; settings: ATCC19418, 48 h
[6] = test system: Escherichia coli L47 SKF 12140; experiment: MIC determination, standard dilution test (Isosensitest broth); assay type: cell-based; settings: L47SKF12140, 24 h
Strep. pyogenes L49 C203 = experiment: MIC determination, standard dilution test (Todd-Hewitt broth); assay type: cell-based; settings: Streptococcus pyogenes, L49C203, 24 h
[7] = test system: Staph. epidermidis L147 ATCC 12228 (coagulase negative); experiment: MIC determination, standard dilution test (Isosensitest broth); assay type: cell-based; settings: Staphylococcus epidermidis, ATCC12228, 24 h
[8] = test system: Strep. pneumoniae L44 UC41; experiment: MIC determination, standard dilution test (Todd-Hewitt broth); assay type: cell-based; settings: Streptococcus pneumoniae, 24 h
[9] = test system: Neisseria gonorrhoeae L997 ISM68/126; experiment: MIC determination, standard dilution test (GC base broth + 1% Isovitalex); assay type: cell-based; settings: L997ISM68/126, 48 h, CO2-enriched
[10] = test system: Strep. mitis L796 (clinical isolate); experiment: MIC determination, standard dilution test (Todd-Hewitt broth); assay type: cell-based; settings: Streptococcus mitis, 24 h
S. pyogenes C 203 (L 49) = experiment: Experimental septicemia in the mouse; assay type: in vivo, CD-1 mice infected with S. pyogenes; settings: Streptococcus pyogenes, sc, 168 h, subcutaneous immediately after infection, survival on 7th day
Experimental: The antimicrobial activity of the compounds of the invention is confirmed also in experimental septicemia in the mouse. Control and treatment groups contained ten CD-1 mice (Charles River) weighing 18-22 g. They were infected intraperitoneally with 0.5 ml of bacterial suspension prepared by diluting an overnight culture of S. pyogenes C 203 (L 49) with sterile peptonized saline. Inocula were adjusted so that untreated animals died of septicemia within 48 h. The compounds to be tested were administered subcutaneously immediately after infection. On the 7th day, the ED50 in mg/kg was calculated by the method of Spearman and Karber (D. J. Finney "Statistical Methods in Biological Assay", Griffin, page 524, 1952) from the percentage of surviving animals at each dose.

[11] = test system: Clostridium perfringens L290 ISS 30543; experiment: microbe, parasite or virus in culture; assay type: cell-based; settings: L290ISS30543, 24 h
[12] = test system: Mycoplasma gallisepticum L431 S6 Weybridge; experiment: MIC determination, standard dilution test (PPLO broth); assay type: cell-based; settings: Mycoplasmoides gallisepticum; PPLO broth + 10% horse serum + 1% glucose, 48 h

CNC1C(=O)NC2Cc3ccc(cc3)Oc3cc4cc(c3O)Oc3ccc(cc3Cl)C(O)C3NC(=O)C(NC(=O)C4NC(=O)C(NC2=O)c2cc(cc(O)c2Cl)Oc2cc1ccc2O)c1ccc(O)c(c1)-c1c(O)cc(O)cc1C(C(=O)O)NC3=O (stereo not shown) [Antibiotic A 40926 aglycon]
MIC [1]: 32 µg/mL (≈ 26.4 µM)
MIC [2]: 1 µg/mL (≈ 0.824 µM)
MIC [3]: 0.5 µg/mL (≈ 0.412 µM)
MIC [4]: 1 µg/mL (≈ 0.824 µM)
MIC (Staph. aureus L165; L165, 24 h, Staph. aureus L165 (10^6 cfu/ml)): 0.25 µg/mL (≈ 0.206 µM)
MIC (Staph. aureus L165; Staph. aureus L165, 24 h, about 10^4-10^5 cfu/ml): 0.13 µg/mL (≈ 0.107 µM)
MIC [5]: 32 µg/mL
MIC [6]: 128 µg/mL (≈ 106 µM)
MIC (Strep. pyogenes L49 C203): 0.5 µg/mL (≈ 0.412 µM)
MIC [7]: 0.13 µg/mL (≈ 0.107 µM)
MIC [8]: 1 µg/mL (≈ 0.824 µM)
MIC [9]: 16 µg/mL
MIC [10]: 0.5 µg/mL (≈ 0.412 µM)
ED50 (S. pyogenes C 203 (L 49)): 6.2 mg/kg
MIC [11]: 0.25 µg/mL (≈ 0.206 µM)
MIC [12]: > 128 µg/mL
